In ChEMBL document CHEMBL4393693, “Synthesis and Structure-Activity relationship of 1-(5-isoquinolinesulfonyl)piperazine analogues as inhibitors of Mycobacterium tuberculosis IMPDH” (Eur J Med Chem, 2019) one finds MIC90 and Ratio data, which are given here for seven molecules.

As usually defined, the MIC90 is an inhibitory concentration at the 90% level, which refers to growth in some studies and to a panel of isolates in others.

SMILES strings stand for the structures. Where only a bound is given, the exact number is not on record here.

One experiment has as its system Mycobacterium tuberculosis. The experiment in a line: Antimycobacterial activity against Mycobacterium tuberculosis H37Rv SRMV2.6 harboring GuaB2 Tyr487Cys mutant assessed as reduction in bacterial cell growth incubated for 3 to 4 weeks by alamar blue fluorescence based broth microdilution assay. The experiment is classed as functional. A general note: Resazurin is reduced to fluorescent resorufin, in cell work by metabolically active cells.
For `COc1cccc(CNC(=O)N2CCN(S(=O)(=O)c3cccc4cnccc34)CC2)c1`, the MIC90 is over 100 µM.

Tested on in another experiment: not listed separately
The experiment can be described thus: Selective ratio of inhibition of GuaB2 Tyr487Cys mutant in Mycobacterium tuberculosis H37Rv SRMV2.6 to inhibition of wild type GuaB2 in Mycobacterium tuberculosis H37Rv.
Turning to `Cc1ccccc1CNC(=O)N1CCN(S(=O)(=O)c2cccc3cnccc23)CC1`, the Ratio is 16 to 32.

`CC1CN(S(=O)(=O)c2cccc3cnccc23)CCN1C(=O)Nc1ccc2c(c1)OCO2` (configuration not stated): the Ratio was in the range of 8 to 16.

For `CC1CCCCC1C(=O)N1CCN(S(=O)(=O)c2cccc3cnccc23)CC1` (configuration not stated), the Ratio fell in the range of 16 to 32.

For `O=C(Nc1ccc2c(c1)OCO2)N1CCCN(S(=O)(=O)c2cccc3cnccc23)CC1`, the Ratio lay in the range of 8 to 16.

For the molecule `O=C(Nc1ccc2c(c1)OCO2)N1CCN(S(=O)(=O)c2cccc3cnccc23)CC1`, the Ratio was determined as 4.

Consider `O=C(C1CCCCC1)N1CCN(S(=O)(=O)c2cccc3cnccc23)CC1`, for which the Ratio came to 32.
